Literature values in article PMC5548701, “Selective targeting of melanoma using N-(2-diethylaminoethyl) 4-[^18F]fluoroethoxy benzamide (4-[^18F]FEBZA): a novel PET imaging probe” (EJNMMI Research, 2017).

Experiments:
[1] = test system: B16F1 tumor; conditions: cited from earlier work; for intestinal uptake: mice bearing B16F melanoma tumor; for bone uptake: 2 h
[2] = design: method as in PMID 27693672; conditions: 60–70 min; cited from earlier work

Compound | intestinal uptake ([1]; 1 h) [%IA/g] | F-18 uptake in B16F1 tumor ([1]; 1 h) [%IA/g] | bone uptake [1] [%IA/g] | uptake in mouse brain from microPET imaging [2] [%IA/g]
CCN(CC)CCNC(=O)c1ccc(F)nc1 [MEL050] | 2.1 ± 0.3 | 8.4 ± 1.5 | 0.58 ± 0.05 | 1.38 ± 0.40
CCN(CC)CCNC(=O)c1ccc([18F])cc1 [^18F-DAFBA, N-(2-diethylaminoethyl)-4-[18F]fluorobenzamide] | 3.04 ± 0.24 | – | 0.20 ± 0.06 | –
